Numbers after ± are expanded uncertainties.
Columns and labels:
[1] = xn = mol fraction of the nth substance listed; details: 101.3 kPa, Liquid; for viscosity: Falling or rolling sphere viscometry; for mass density: Vibrating tube method
[2] = refractive index (Na D-line) (dimensionless); xn = mol fraction of the nth substance listed; details: 298.15 K, 101.3 kPa, Liquid, Standard Abbe refractometry

CC(=O)O.CCCCN [butylammonium acetate] + CCO
[1]
Details	mass density, 293.15 K [kg/m3]	mass density, 298.15 K [kg/m3]	mass density, 303.15 K [kg/m3]	mass density, 308.15 K [kg/m3]	mass density, 313.15 K [kg/m3]	viscosity, 293.15 K [mPa·s]	viscosity, 298.15 K [mPa·s]	viscosity, 303.15 K [mPa·s]	viscosity, 308.15 K [mPa·s]	viscosity, 313.15 K [mPa·s]
x1 = 0.0319	805.12 ± 0.38	800.93 ± 0.38	796.71 ± 0.38	792.46 ± 0.38	788.16 ± 0.38	1.644 ± 0.045	1.488 ± 0.041	1.349 ± 0.037	1.226 ± 0.034	1.117 ± 0.031
x1 = 0.0608	817.26 ± 0.39	813.17 ± 0.38	809.04 ± 0.38	804.88 ± 0.38	800.68 ± 0.38	2.184 ± 0.06	1.959 ± 0.054	1.764 ± 0.048	1.593 ± 0.044	1.442 ± 0.04
x1 = 0.0999	831.76 ± 0.39	827.77 ± 0.39	823.74 ± 0.38	819.69 ± 0.38	815.6 ± 0.38	3.042 ± 0.084	2.707 ± 0.074	2.42 ± 0.067	2.171 ± 0.06	1.908 ± 0.052
x1 = 0.1977	860.95 ± 0.39	857.19 ± 0.39	853.35 ± 0.39	849.49 ± 0.39	845.68 ± 0.39	6.773 ± 0.19	5.903 ± 0.16	5.176 ± 0.14	4.557 ± 0.12	4.013 ± 0.11
x1 = 0.2965	883.07 ± 0.4	879.43 ± 0.4	875.76 ± 0.4	872.09 ± 0.4	868.39 ± 0.39	13.92 ± 0.38	11.88 ± 0.33	10.23 ± 0.28	8.831 ± 0.24	7.695 ± 0.21
x1 = 0.4008	901.46 ± 0.4	897.94 ± 0.4	894.4 ± 0.4	890.81 ± 0.4	887.18 ± 0.4	26.61 ± 0.73	22.28 ± 0.61	18.84 ± 0.52	16.06 ± 0.44	13.75 ± 0.38
x1 = 0.5005	915.65 ± 0.41	912.21 ± 0.41	908.76 ± 0.41	905.3 ± 0.4	901.83 ± 0.4	49.22 ± 1.4	40.2 ± 1.1	33.21 ± 0.91	27.76 ± 0.76	23.37 ± 0.64
x1 = 0.6454	932.09 ± 0.41	928.75 ± 0.41	925.39 ± 0.41	922.03 ± 0.41	918.66 ± 0.41	113.11 ± 4.1	90.9 ± 2.9	72.83 ± 2.1	59.18 ± 1.6	48.51 ± 1.3
x1 = 0.8019	945.97 ± 0.42	942.74 ± 0.42	939.48 ± 0.41	936.22 ± 0.41	932.94 ± 0.41	264.17 ± 15	201.81 ± 10	156.42 ± 6.9	122.42 ± 4.7	97.36 ± 3.3
x1 = 0.9009	953.34 ± 0.42	950.15 ± 0.42	946.94 ± 0.42	943.74 ± 0.42	940.53 ± 0.41	475.32 ± 36	347.84 ± 23	260.75 ± 15	197.78 ± 9.9	152.81 ± 6.6

[2]
Details	refractive index
x1 = 0.0319	1.3681 ± 0.0011
x1 = 0.0608	1.3731 ± 0.0011
x1 = 0.0999	1.3804 ± 0.0011
x1 = 0.1977	1.3965 ± 0.0011
x1 = 0.2965	1.4073 ± 0.0011
x1 = 0.4008	1.4152 ± 0.0011
x1 = 0.5005	1.4219 ± 0.0011
x1 = 0.6454	1.4292 ± 0.0011
x1 = 0.8019	1.436 ± 0.0011
x1 = 0.9009	1.4396 ± 0.0011

CC(=O)O.CCCCN [butylammonium acetate] + CO
[1]
Details	mass density, 293.15 K [kg/m3]	mass density, 298.15 K [kg/m3]	mass density, 303.15 K [kg/m3]	mass density, 308.15 K [kg/m3]	mass density, 313.15 K [kg/m3]	viscosity, 293.15 K [mPa·s]	viscosity, 298.15 K [mPa·s]	viscosity, 303.15 K [mPa·s]	viscosity, 308.15 K [mPa·s]	viscosity, 313.15 K [mPa·s]
x1 = 0.0302	814.76 ± 0.4	810.3 ± 0.4	805.81 ± 0.39	801.29 ± 0.39	796.74 ± 0.39	0.883 ± 0.024	0.82 ± 0.023	0.763 ± 0.021	0.712 ± 0.02	0.666 ± 0.018
x1 = 0.0597	832.65 ± 0.4	828.3 ± 0.4	823.98 ± 0.39	819.63 ± 0.39	815.28 ± 0.39	1.237 ± 0.034	1.141 ± 0.031	1.053 ± 0.029	0.975 ± 0.027	0.905 ± 0.025
x1 = 0.1011	852.44 ± 0.39	848.33 ± 0.39	844.2 ± 0.39	840.05 ± 0.39	835.89 ± 0.39	1.933 ± 0.053	1.759 ± 0.048	1.607 ± 0.044	1.474 ± 0.041	1.357 ± 0.037
x1 = 0.1992	884.85 ± 0.4	881.05 ± 0.4	877.23 ± 0.4	873.38 ± 0.4	869.54 ± 0.4	4.825 ± 0.13	4.283 ± 0.12	3.828 ± 0.11	3.437 ± 0.094	3.099 ± 0.085
x1 = 0.301	906.27 ± 0.4	902.66 ± 0.4	899.04 ± 0.4	895.45 ± 0.4	891.77 ± 0.4	11.1 ± 0.3	9.608 ± 0.26	8.354 ± 0.23	7.294 ± 0.2	6.415 ± 0.18
x1 = 0.4023	920.99 ± 0.41	917.52 ± 0.41	914.03 ± 0.41	910.53 ± 0.41	907.04 ± 0.4	23.22 ± 0.64	19.57 ± 0.54	16.66 ± 0.46	14.34 ± 0.39	12.54 ± 0.34
x1 = 0.4995	931.42 ± 0.41	928.03 ± 0.41	924.64 ± 0.41	921.23 ± 0.41	917.83 ± 0.41	44.76 ± 1.2	36.68 ± 1	30.45 ± 0.84	25.59 ± 0.7	21.65 ± 0.59
x1 = 0.6524	943.29 ± 0.42	940 ± 0.41	936.69 ± 0.41	933.39 ± 0.41	930.08 ± 0.41	115.48 ± 4.3	92.51 ± 3	69.01 ± 2	53.46 ± 1.4	47.61 ± 1.3
x1 = 0.7993	951.52 ± 0.42	948.31 ± 0.42	945.07 ± 0.42	941.83 ± 0.41	938.59 ± 0.41	256.45 ± 15	195.97 ± 9.7	151.07 ± 6.5	118.32 ± 4.4	94.24 ± 3.1
x1 = 0.8988	955.88 ± 0.42	952.69 ± 0.42	949.49 ± 0.42	946.3 ± 0.42	943.09 ± 0.42	418.49 ± 30	312.52 ± 19	242.56 ± 13	183.85 ± 8.8	142.67 ± 6

[2]
Details	refractive index
x1 = 0.0302	1.3413 ± 0.0004
x1 = 0.0597	1.3526 ± 0.0004
x1 = 0.1011	1.3665 ± 0.0004
x1 = 0.1992	1.3878 ± 0.0004
x1 = 0.301	1.403 ± 0.0004
x1 = 0.4023	1.4144 ± 0.0004
x1 = 0.4995	1.4212 ± 0.0004
x1 = 0.6524	1.4316 ± 0.0004
x1 = 0.7993	1.4365 ± 0.0004
x1 = 0.8988	1.4398 ± 0.0004

Reference: the NIST ThermoML archive (doi:10.1021/je200707b)
